{"source": "paper PMC10593844", "about": "“Structure-function analyses reveal key molecular determinants of HIV-1 CRF01_AE resistance to the entry inhibitor temsavir” (Nature Communications, 2023)", "tested_on": "HIV-1 pseudovirus bearing clade B YU2 Env H105Q/I108V", "type": "cell-based", "note": "Several values for one entry are separate records, joined by “and”; a condition that tells them apart may be missing. Equal entries are not always repeated. Where two headings read alike, the source gives them in different places."}
{"smiles": "COc1cnc(-n2cnc(C)n2)c2[nH]cc(C(=O)C(=O)N3CCN(C(=O)c4ccccc4)CC3)c12", "note": "[Temsavir, temsavir]", "values": [{"measurement": "Relative infectivity (%)", "setting": "Temsavir 5 nM", "result": "1.06% and 2.62% and 1.23%"}, {"measurement": "Relative infectivity (%)", "setting": "Temsavir 10 nM", "result": "1.04% and 2.29% and 1.51%"}, {"measurement": "Relative infectivity (%)", "setting": "Temsavir 50 nM", "result": "0.98% and 2.22% and 1.35%"}, {"measurement": "Relative infectivity (%)", "setting": "Temsavir 100 nM", "result": "1.01% and 5.2% and 2.05%"}]}
